Data: patent publication US11312940B2, “Progenitor cells and methods for preparing and using the same” (University of Louisville Research Foundation, Inc., priority 2015, dated 2022)

B1: prolactin (protein, UniProt P01236 29-227, looked up)
Prolactin: LPICPGGAARCQVTLRDLFDRAVVLSHYIHNLSSEMFSEFDKRYTHGRGFITKAINSCHTSSLATPEDKEQAQQMNQKDFLSLIVSILRSWNEPLYHLVTEVRGMQEAPEAILSKAVEIEEQTKRLLEGMELIVSQVHPETKENEIYPVWSGLPSLQMADEESRLSAYYNLLHCLRRDSHKIDNYLKLLKCRIIHNNNC
notes: pituitary sex hormone, purchased from ProSpec

Experiments:
BM HSPCs = experiment: Total number of BM HSPCs by FACS after SexH administration; format: in vivo, mouse; settings: male and female mice, 10-day administration
Procedure: (§1) Hormone treatment was performed for 10 days.
(§2) All mAbs were added at saturating concentrations, and the cells were incubated for 30 minutes on ice, washed twice, and then resuspended for sorting in cell-sorting medium containing 1× Hank's Balanced Salt Solution without phenol red (GIBCO™, a division of Thermo Fisher Scientific Inc., Waltham, Mass.), 2% heat-inactivated fetal calf serum (GIBCO™), 10 mM HEPES buffer (GIBCO™), and 30 U/mL gentamicin (GIBCO™) at a concentration of 5×10^6 cells/mL. Sca-1^+/Lin^−/CD45^− cells (VSELs) and Sca-1^+/Lin^−/CD45^+ cells (HSCs) were isolated according to the gating and sorting strategy described in Zuba-Surma & Ratajczak, 2010 and Suszynska et al, 2014b. Proliferation events in BM-derived VSEL and HSC populations were examined by BrdU incorporation followed by flow cytometry.

[1] = tested on: sublethally irradiated mice; experiment: Recovery of PB counts in sublethally irradiated mice; format: in vivo, mouse; settings: 650 cGy, injections for 10 days
Procedure: Fifty microliters of PB was taken from the retro-orbital plexus of the mice and collected into microvette EDTA-coated tubes (Sarstedt AG & Co., Nümbrecht, Germany). Samples were run within 2 hours of collection on a HEMAVET® 950 hematology analyzer (Drew Scientific Inc., Oxford, Conn.) as described in Borkowska et al., 2014.
Blood was collected on days 0, 3, 7, 14, 21, and 28, and white blood cell (WBC), platelet, red blood cells (RBC), and hematocrit were measured on a HEMAVET® instrument (HV950FS; Drew Scientific Inc.) as described in Borkowska et al, 2014. Experiments were performed twice (each time, n=5).

[2] = tested on: Sca-1+/Lin-/CD45+ cells (HSPCs); experiment: In vivo BrdU incorporation into BM HSPCs; design: species or system mouse
Procedure: as §1, §2
(§3) Adult C57BL/6 mice (4-8 weeks old; Jackson Laboratory) were intraperitoneally (i.p.) were injected daily with 1 mg of BrdU solution to evaluate whether SexHs affect proliferation of stem cells, and the final injection of BrdU was performed 1 hour before sacrificing the animals (see Grymula et al, 2014). […] Samples were analyzed with a Navios flow cytometer (Beckman Coulter).

BM VSELs = experiment: Total number of BM VSELs by FACS after SexH administration; format: in vivo, mouse; settings: 10-day administration; for increase in total number of VSELs/10^6 BMMNCs (ranking): female mice; for increase in total number of VSELs/10^6 BMMNCs: male BM
Procedure: as §1, §2

[3] = tested on: Sca-1+/Lin-/CD45- cells (VSELs); experiment: In vivo BrdU incorporation into BM VSELs; design: species or system mouse; settings: for BrdU incorporation response of Sca-1+/Lin-/CD45- cells (ranking): 10-day administration
Procedure: as §1, §2, §3

Molecule | increase in BM HSPCs/10^6 BMMNCs (ranking) (BM HSPCs) | leucocyte counts [1] | increase in percentage of BrdU+ Sca-1+/Lin-/CD45+ cells (ranking) ([2]; 10-day administration) | increase in total number of VSELs/10^6 BMMNCs (ranking) (BM VSELs) | increase in total number of VSELs/10^6 BMMNCs (BM VSELs) | BrdU incorporation response of Sca-1+/Lin-/CD45- cells (ranking) ([3]; female and male cells) | BrdU incorporation into Sca1+/Lin-/CD45+ HSPCs ([2]; ovariectomized female mice) | BrdU incorporation in Sca-1+/Lin-/CD45- VSELs ([3]; ovariectomized female mice) | BrdU incorporation response of Sca-1+/Lin-/CD45- cells (ranking) ([3]; female cells)
C#C[C@]1(O)CC[C@H]2[C@@H]3CCC4=Cc5oncc5C[C@]4(C)[C@H]3CC[C@@]21C [danazol] | highest stimulatory effect | statistically significant increase | highest increases | most effective | about 2.5 fold | highest response |  |  | 
C[C@]12CC[C@@H]3c4ccc(O)cc4CC[C@H]3[C@@H]1CC[C@@H]2O [estrogen, estradiol] |  |  |  |  | about 2.5 fold |  |  |  | 
CC(=O)[C@H]1CC[C@H]2[C@@H]3CCC4=CC(=O)CC[C@]4(C)[C@H]3CC[C@]12C [progesterone] |  |  |  |  |  |  | small increase in BrdU incorporation | enhanced BrdU incorporation | 
B1 |  | statistically significant increase |  | most effective | about 2.5 fold |  |  |  | highest response
